From US9120812B2, “Pyrimidooxazocine derivatives as mTOR-inhibitors” (SANOFI, priority 2012, dated 2015)
Where two headings read alike, the source gives them in different places.

What was measured:
[1] = target: mTOR (human recombinant aa mTOR 1360-2549) (Homo sapiens (Human), UniProt P42345); experiment: mTOR enzymatic test by TR-FRET (phosphorylation of GFP-4EBP1); assay type: biochemical
Method in brief: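 After a 30 min room-temperature kinase reaction, EDTA (10 mM final) and Tb-labelled phospho-Thr46 antibody (2 nM final) were added and incubated 60 min. Energy transfer from Tb to phosphorylated GFP-4EBP1 was read at 340 nm excitation, emissions 490/520 nm. Values derive from the 520/490 fluorescence ratio.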

[2] = target: PI3Kα (p110α/p85α) (Homo sapiens (Human), UniProt P42336); experiment: PI3Kα enzymatic test by measuring the consumption of ATP; assay type: biochemical
Method in brief: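 ATP consumption read out by KinaseGlo luminescence after a 90 min reaction of 1.7 μg/ml PI3Kα (p110α/p85α) with 2 μM ATP and 50 μM PIP2, buffered at pH 7.5 (Tris, 10 mM MgCl2, 1 mM EGTA, 0.03% Chaps, 1 mM DTT). Threefold dilution series over ≥10 000-fold range yield IC50.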

[3] = tested on: Akt-pS473 in U87MG cells; details: Homo sapiens, U-87 MG; for inhibition at 3 µM: read-out: U87 Akt-pS473 % Inhibition
[4] = tested on: U87MG tumour cells; experiment: Test of in vitro proliferation of U87MG tumour cells; assay type: cell-based; details: Homo sapiens, U-87 MG, 72 h
Protocol: Model 4: Test of in vitro Proliferation of U87MG Tumour Cells.
The cell growth is determined with the reagent CellTiter 96 AQueous One Solution Cell Proliferation Assay from Promega (Cat. No. G3581).

[5] = read-out: U87 Akt-pS473 % Inhibition or IC50, nM (IC50), U87MG cells
[6] = U87MG cells, 72 hours, read-out: U87 Cell Proliferation IC50

Chain of mTOR (human recombinant aa mTOR 1360-2549) (P42345 1360-2549): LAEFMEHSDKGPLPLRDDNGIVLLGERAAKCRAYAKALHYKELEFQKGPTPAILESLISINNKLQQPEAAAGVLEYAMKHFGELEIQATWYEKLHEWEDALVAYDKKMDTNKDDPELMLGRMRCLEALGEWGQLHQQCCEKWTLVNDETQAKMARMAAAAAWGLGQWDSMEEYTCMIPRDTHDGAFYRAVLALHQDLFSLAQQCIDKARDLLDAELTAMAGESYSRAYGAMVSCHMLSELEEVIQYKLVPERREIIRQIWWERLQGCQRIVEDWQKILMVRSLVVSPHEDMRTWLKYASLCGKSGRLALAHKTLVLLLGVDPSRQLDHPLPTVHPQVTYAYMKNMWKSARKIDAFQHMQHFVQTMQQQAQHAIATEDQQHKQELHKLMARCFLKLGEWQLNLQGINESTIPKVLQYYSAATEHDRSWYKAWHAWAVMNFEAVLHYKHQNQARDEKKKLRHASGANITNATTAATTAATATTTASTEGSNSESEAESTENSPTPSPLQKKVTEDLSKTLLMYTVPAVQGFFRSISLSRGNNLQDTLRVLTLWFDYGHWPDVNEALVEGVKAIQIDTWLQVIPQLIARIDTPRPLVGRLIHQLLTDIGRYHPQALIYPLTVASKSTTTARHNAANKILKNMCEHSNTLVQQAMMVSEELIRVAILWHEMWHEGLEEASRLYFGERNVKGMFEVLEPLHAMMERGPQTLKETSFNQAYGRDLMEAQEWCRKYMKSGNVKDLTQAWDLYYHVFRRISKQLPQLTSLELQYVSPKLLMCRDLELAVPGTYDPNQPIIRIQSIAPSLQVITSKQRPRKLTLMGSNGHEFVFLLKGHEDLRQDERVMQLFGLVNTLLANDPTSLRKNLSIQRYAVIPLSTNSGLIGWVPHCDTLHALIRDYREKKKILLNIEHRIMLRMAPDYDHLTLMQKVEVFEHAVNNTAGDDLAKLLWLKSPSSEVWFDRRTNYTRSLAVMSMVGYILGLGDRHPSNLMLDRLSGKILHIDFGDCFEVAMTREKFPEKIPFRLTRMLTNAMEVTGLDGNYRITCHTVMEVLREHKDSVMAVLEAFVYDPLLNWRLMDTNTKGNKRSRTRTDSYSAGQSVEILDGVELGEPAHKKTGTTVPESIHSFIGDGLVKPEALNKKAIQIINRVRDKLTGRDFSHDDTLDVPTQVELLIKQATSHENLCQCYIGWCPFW
Chain of PI3Kα (p110α/p85α) (P42336 whole entry): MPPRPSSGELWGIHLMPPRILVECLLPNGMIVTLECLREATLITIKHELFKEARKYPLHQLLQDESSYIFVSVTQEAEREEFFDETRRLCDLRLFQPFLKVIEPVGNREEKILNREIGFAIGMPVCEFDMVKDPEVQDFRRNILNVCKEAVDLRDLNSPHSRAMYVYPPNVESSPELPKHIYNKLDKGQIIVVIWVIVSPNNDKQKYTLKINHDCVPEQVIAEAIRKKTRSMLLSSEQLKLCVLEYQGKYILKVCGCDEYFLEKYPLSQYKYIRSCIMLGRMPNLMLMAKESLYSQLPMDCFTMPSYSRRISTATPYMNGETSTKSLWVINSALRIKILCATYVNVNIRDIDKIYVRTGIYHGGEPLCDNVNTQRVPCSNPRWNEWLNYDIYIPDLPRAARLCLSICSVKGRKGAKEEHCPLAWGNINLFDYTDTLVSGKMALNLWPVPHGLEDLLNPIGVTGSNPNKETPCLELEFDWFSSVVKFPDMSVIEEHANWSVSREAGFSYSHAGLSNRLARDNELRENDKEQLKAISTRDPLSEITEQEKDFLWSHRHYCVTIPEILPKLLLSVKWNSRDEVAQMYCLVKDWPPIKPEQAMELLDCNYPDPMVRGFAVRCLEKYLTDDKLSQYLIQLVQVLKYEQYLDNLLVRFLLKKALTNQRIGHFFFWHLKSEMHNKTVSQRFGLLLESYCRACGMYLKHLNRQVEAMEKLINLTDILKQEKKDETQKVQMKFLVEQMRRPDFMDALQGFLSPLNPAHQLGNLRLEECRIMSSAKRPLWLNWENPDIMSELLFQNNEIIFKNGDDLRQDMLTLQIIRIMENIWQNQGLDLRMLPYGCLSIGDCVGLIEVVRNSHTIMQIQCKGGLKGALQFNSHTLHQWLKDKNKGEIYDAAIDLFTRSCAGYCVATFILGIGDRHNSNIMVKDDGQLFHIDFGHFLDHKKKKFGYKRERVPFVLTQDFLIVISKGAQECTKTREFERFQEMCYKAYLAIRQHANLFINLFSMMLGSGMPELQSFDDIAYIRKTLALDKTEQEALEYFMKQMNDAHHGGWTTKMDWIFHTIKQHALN
Chain of PI3Kα (p110α/p85α) (P27986 whole entry partner): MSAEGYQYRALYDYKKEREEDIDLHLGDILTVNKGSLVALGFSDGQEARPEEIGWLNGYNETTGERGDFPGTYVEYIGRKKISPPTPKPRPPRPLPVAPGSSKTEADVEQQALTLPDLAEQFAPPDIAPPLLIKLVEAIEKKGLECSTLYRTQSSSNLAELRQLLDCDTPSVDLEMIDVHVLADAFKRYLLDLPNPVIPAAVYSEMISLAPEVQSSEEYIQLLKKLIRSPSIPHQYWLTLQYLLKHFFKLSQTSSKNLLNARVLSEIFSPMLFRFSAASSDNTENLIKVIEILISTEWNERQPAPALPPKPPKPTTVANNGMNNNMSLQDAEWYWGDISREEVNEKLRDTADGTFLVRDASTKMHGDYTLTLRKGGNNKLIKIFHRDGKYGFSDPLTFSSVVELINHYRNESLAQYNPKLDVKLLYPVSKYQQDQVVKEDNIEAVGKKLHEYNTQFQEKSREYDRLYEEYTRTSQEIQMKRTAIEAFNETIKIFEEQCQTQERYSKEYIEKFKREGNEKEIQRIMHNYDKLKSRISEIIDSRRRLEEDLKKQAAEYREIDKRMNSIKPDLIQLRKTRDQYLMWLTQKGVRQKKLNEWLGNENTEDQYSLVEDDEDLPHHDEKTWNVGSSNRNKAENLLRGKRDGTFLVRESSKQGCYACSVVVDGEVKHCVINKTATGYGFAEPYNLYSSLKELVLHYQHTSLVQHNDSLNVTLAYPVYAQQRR

Row | SMILES | IC50 [1] | PI3Ka IC50 [2] | IC50 [3, 5] | IC50 [4, 6] | inhibition at 3 µM [3] | IC50 ([3]; read-out: U87 Akt-pS473 % Inhibition or IC50, nM (IC50)) | IC50 ([4]; read-out: U87 Cell Proliferation IC50, nM)
1 | CCN1CC(C)(C)Oc2nc(N3CCOC[C@@H]3C)nc(-c3ccc(NC(=O)OCCO)cc3)c2C1=O [Example 186, {4-[6-Ethyl-8,8-dimethyl-2-((S)-3-methylmorpholin-4-yl)-5-oxo-5,6,7,8-tetrahydro-9-oxa-1,3,6-triazabenzocyclohepten-4-yl]phenyl}carbamic acid 2-hydroxyethyl ester] | 25 nM | 3940 nM | 60 nM | 266 nM |  |  | 
2 | CCN1CC(C)(C)Oc2nc(N3CCOC[C@@H]3C)nc(-c3ccc(NC(=O)Nc4ccc(N5CCOCC5)nc4)c(F)c3)c2C1=O [Example 187, 1-{4-[6-Ethyl-8,8-dimethyl-2-((S)-3-methylmorpholin-4-yl)-5-oxo-5,6,7,8-tetrahydro-9-oxa-1,3,6-triazabenzocyclohepten-4-yl]-2-fluorophenyl}-3-(6-morpholin-4-ylpyridin-3-yl)urea] | 37 nM | 472 nM | 22 nM | 67 nM |  |  | 
3 | COCCN1CC(C)(C)Oc2nc(N3CCOC[C@@H]3C)nc(-c3ccc(NC(=O)Nc4ccc(F)cc4F)cc3)c2C1=O [Example 188, 1-(2,4-Difluorophenyl)-3-{4-[6-(2-methoxyethyl)-8,8-dimethyl-2-((S)-3-methylmorpholin-4-yl)-5-oxo-5,6,7,8-tetrahydro-9-oxa-1,3,6-triazabenzocyclohepten-4-yl]phenyl}urea] | 63 nM | 2330 nM | 45 nM | 505 nM |  |  | 
4 | COc1ccc(NC(=O)Nc2ccc(-c3nc(N4CCOC[C@@H]4C)nc4c3C(=O)N(C3CCOCC3)CC(C)(C)O4)cc2F)cn1 [Example 189, 1-{4-[8,8-Dimethyl-2-((S)-3-methylmorpholin-4-yl)-5-oxo-6-(tetrahydropyran-4-yl)-5,6,7,8-tetrahydro-9-oxa-1,3,6-triazabenzocyclohepten-4-yl]-2-fluorophenyl}-3-(6-methoxypyridin-3-yl)urea] | 62 nM | 1890 nM | 56 nM | 451 nM |  |  | 
5 | CCN1CC(C)(C)Oc2nc(N3CC4CCC(C3)O4)nc(-c3ccc(NC(=O)Nc4ccc(C(=O)NCC(C)(C)O)cc4)cc3)c2C1=O [Example 190, 4-(3-{4-[6-Ethyl-8,8-dimethyl-2-(8-oxa-3-azabicyclo[3.2.1]oct-3-yl)-5-oxo-5,6,7,8-tetrahydro-9-oxa-1,3,6-triazabenzocyclohepten-4-yl]phenyl}ureido)-N-(2-hydroxy-2-methylpropyl)benzamide] | 40 nM | 927 nM |  | 734 nM | 69% |  | 
6 | CCN1CC(C)(C)Oc2nc(N3CCOC[C@@H]3C)nc(-c3ccc(NC(=O)Nc4ccc(F)cc4F)cc3)c2C1=O [Example 191, 1-(2,4-Difluorophenyl)-3-{4-[6-ethyl-8,8-dimethyl-2-((S)-3-methylmorpholin-4-yl)-5-oxo-5,6,7,8-tetrahydro-9-oxa-1,3,6-triazabenzocyclohepten-4-yl]phenyl}urea] | 24 nM | 570 nM | 26 nM | 105 nM |  |  | 
7 | CCN1CC(C)(C)Oc2nc(N3CCOC[C@@H]3C)nc(-c3ccc(NC(=O)Nc4ccccn4)c(F)c3)c2C1=O [Example 192, 1-{4-[6-Ethyl-8,8-dimethyl-2-((S)-3-methylmorpholin-4-yl)-5-oxo-5,6,7,8-tetrahydro-9-oxa-1,3,6-triazabenzocyclohepten-4-yl]-2-fluorophenyl}-3-pyridin-2-ylurea] | 29 nM | 1310 nM |  | 1770 nM | 82% |  | 
8 | CCN1CC(C)(C)Oc2nc(N3CCOC[C@@H]3C)nc(-c3ccc(NC(=O)Oc4cccc(OC)c4)cc3)c2C1=O [Example 193, {4-[6-Ethyl-8,8-dimethyl-2-((S)-3-methylmorpholin-4-yl)-5-oxo-5,6,7,8-tetrahydro-9-oxa-1,3,6-triazabenzocyclohepten-4-yl]phenyl}carbamic acid 3-methoxyphenyl ester] | 970 nM | 9440 nM |  |  |  | > 1000 nM | 4660 nM
9 | CCN1CC(C)(C)Oc2nc(N3CC4CCC(C3)O4)nc(-c3ccc(NC(=O)Nc4cn(C)cn4)c(F)c3)c2C1=O [Example 194, 1-{4-[6-Ethyl-8,8-dimethyl-2-(8-oxa-3-azabicyclo[3.2.1]oct-3-yl)-5-oxo-5,6,7,8-tetrahydro-9-oxa-1,3,6-triazabenzocyclohepten-4-yl]-2-fluorophenyl}-3-(1-methyl-1H-imidazol-4-yl)urea] | 27 nM | 1230 nM |  | 2130 nM | 62% |  | 
10 | CCN1CC(C)(C)Oc2nc(N3CC4CCC(C3)O4)nc(-c3ccc(NC(=O)Nc4ccc(N5CCN(C)CC5)nc4)c(F)c3)c2C1=O [Example 195, 1-{4-[6-Ethyl-8,8-dimethyl-2-(8-oxa-3-azabicyclo[3.2.1]oct-3-yl)-5-oxo-5,6,7,8-tetrahydro-9-oxa-1,3,6-triazabenzocyclohepten-4-yl]-2-fluorophenyl}-3-[6-(4-methylpiperazin-1-yl)pyridin-3-yl]urea] | 61 nM | 6800 nM | 45 nM | 57 nM |  |  | 
11 | CCN1CC(C)(C)Oc2nc(N3CCOC[C@@H]3C)nc(-c3ccc(NC(=O)Nc4ccc(OC)nc4)c(C)c3)c2C1=O [Example 196, 1-{4-[6-Ethyl-8,8-dimethyl-2-((S)-3-methylmorpholin-4-yl)-5-oxo-5,6,7,8-tetrahydro-9-oxa-1,3,6-triazabenzocyclohepten-4-yl]-2-methylphenyl}-3-(6-methoxypyridin-3-yl)urea] | 276 nM | 7470 nM |  | 5050 nM | 60% |  | 
12 | COCCN1CC(C)(C)Oc2nc(N3CC4CCC(C3)O4)nc(-c3ccc(NC(=O)Nc4ccc(OC)nc4)cc3)c2C1=O [Example 197, 1-{4-[6-(2-Methoxyethyl)-8,8-dimethyl-2-(8-oxa-3-azabicyclo[3.2.1]oct-3-yl)-5-oxo-5,6,7,8-tetrahydro-9-oxa-1,3,6-triazabenzocyclohepten-4-yl]phenyl}-3-(6-methoxypyridin-3-yl)urea] | 117 nM | >10000 nM | 150 nM | 523 nM |  |  | 
13 | CCN1CC(C)(C)Oc2nc(N3CC4CCC(C3)O4)nc(-c3ccc(NC(=O)Nc4cnc(OC)cn4)cc3)c2C1=O [Example 198, 1-{4-[6-Ethyl-8,8-dimethyl-2-(8-oxa-3-azabicyclo[3.2.1]oct-3-yl)-5-oxo-5,6,7,8-tetrahydro-9-oxa-1,3,6-triazabenzocyclohepten-4-yl]phenyl}-3-(5-methoxypyrazin-2-yl)urea] | 57 nM | >10000 nM | 44 nM | 318 nM |  |  | 
14 | CCN1CC(C)(C)Oc2nc(N3CCOC[C@@H]3C)nc(-c3ccc(NC(=O)Nc4ccnc(C)c4)c(F)c3)c2C1=O [Example 199, 1-{4-[6-Ethyl-8,8-dimethyl-2-((S)-3-methylmorpholin-4-yl)-5-oxo-5,6,7,8-tetrahydro-9-oxa-1,3,6-triazabenzocyclohepten-4-yl]-2-fluorophenyl}-3-(2-methylpyridin-4-yl)urea] | 39 nM | 174 nM | 10 nM | 32 nM |  |  | 
15 | CCN1CC(C)(C)Oc2nc(N3CC4CCC(C3)O4)nc(-c3ccc(NC(=O)Nc4ccc(N5CCOCC5)nc4)c(F)c3)c2C1=O [Example 200, 1-{4-[6-Ethyl-8,8-dimethyl-2-(8-oxa-3-azabicyclo[3.2.1]oct-3-yl)-5-oxo-5,6,7,8-tetrahydro-9-oxa-1,3,6-triazabenzocyclohepten-4-yl]-2-fluorophenyl}-3-(6-morpholin-4-ylpyridin-3-yl)urea] | 52 nM | >10000 nM | 9 nM | 108 nM |  |  | 
16 | COCCN1CC(C)(C)Oc2nc(N3CCOC[C@@H]3C)nc(-c3ccc(NC(=O)Nc4cnn(C)c4)cc3)c2C1=O [Example 201, 1-{4-[6-(2-Methoxyethyl)-8,8-dimethyl-2-((S)-3-methylmorpholin-4-yl)-5-oxo-5,6,7,8-tetrahydro-9-oxa-1,3,6-triazabenzocyclohepten-4-yl]phenyl}-3-(1-methyl-1H-pyrazol-4-yl)urea] | 48 nM | 813 nM | 230 nM | 898 nM |  |  | 
17 | CCN1CC(C)(C)Oc2nc(N3CCOC[C@@H]3C)nc(-c3ccc(NC(=O)Nc4ccccc4F)cc3)c2C1=O [Example 202, 1-{4-[6-Ethyl-8,8-dimethyl-2-((S)-3-methylmorpholin-4-yl)-5-oxo-5,6,7,8-tetrahydro-9-oxa-1,3,6-triazabenzocyclohepten-4-yl]phenyl}-3-(2-fluorophenyl)urea] | 19 nM | 213 nM | 5 nM | 73 nM |  |  | 
